PMC10257657, “A flavin-monooxygenase catalyzing oxepinone formation and the complete biosynthesis of vibralactone” (Nature Communications, 2023)

How the values were obtained:
VibO [1] = target: T1, VibO (Boreostereum vibrans, UniProt A0AA82WP17, D99N); assay: LC-MS peak area of product […]; assay type: biochemical; settings: 6 0.5 mM, NADPH 0.1 mM, pH 7.5, 28 °C, 2 h; hydroxylation to 7
T1 construct: full length, N-terminal His6 tag, expressed in E. coli BL21(DE3) (pET28a(+)); domains cover residues 1-653; dimer; copurified FAD
T1 sequence (A0AA82WP17 entry or part of it D99N): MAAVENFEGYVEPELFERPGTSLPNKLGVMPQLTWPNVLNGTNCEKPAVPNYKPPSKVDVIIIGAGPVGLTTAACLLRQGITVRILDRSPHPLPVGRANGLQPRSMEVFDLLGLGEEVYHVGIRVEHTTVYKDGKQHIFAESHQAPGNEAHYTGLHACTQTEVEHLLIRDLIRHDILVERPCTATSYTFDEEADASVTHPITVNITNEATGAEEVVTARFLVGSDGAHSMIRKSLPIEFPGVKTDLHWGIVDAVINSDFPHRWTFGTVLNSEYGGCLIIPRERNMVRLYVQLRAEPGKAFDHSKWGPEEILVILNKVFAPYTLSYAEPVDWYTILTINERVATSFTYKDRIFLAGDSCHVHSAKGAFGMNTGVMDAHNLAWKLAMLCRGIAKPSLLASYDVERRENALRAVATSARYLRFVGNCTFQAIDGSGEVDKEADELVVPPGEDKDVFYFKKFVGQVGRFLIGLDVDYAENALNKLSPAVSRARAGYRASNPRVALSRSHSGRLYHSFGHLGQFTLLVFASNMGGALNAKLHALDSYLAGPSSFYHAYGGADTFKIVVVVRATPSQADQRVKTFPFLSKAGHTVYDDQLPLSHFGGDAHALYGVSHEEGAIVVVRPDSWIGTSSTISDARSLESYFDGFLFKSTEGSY

VibO [2] = target: T2, VibO (Boreostereum vibrans, UniProt A0AA82WP17, D99A); assay: LC-MS peak area of product […]; assay type: biochemical; settings: 6 0.5 mM, NADPH 0.1 mM, pH 7.5, 28 °C, 2 h; hydroxylation to 7
T2 construct: full length, N-terminal His6 tag, expressed in E. coli BL21(DE3) (pET28a(+)); domains cover residues 1-653; dimer; copurified FAD
T2 sequence (A0AA82WP17 entry or part of it D99A): as the sequence (A0AA82WP17 entry or part of it D99N) above, with N99A counted along it

VibO [3] = target: T3, VibO (Boreostereum vibrans, UniProt A0AA82WP17, F265Y); assay: LC-MS peak area of product […]; assay type: biochemical; settings: 6 0.5 mM, NADPH 0.1 mM, pH 7.5, 28 °C, 2 h; hydroxylation to 7
T3 construct: full length, N-terminal His6 tag, expressed in E. coli BL21(DE3) (pET28a(+)); domains cover residues 1-653; dimer; copurified FAD
T3 sequence (A0AA82WP17 entry or part of it F265Y): as the sequence (A0AA82WP17 entry or part of it D99N) above, with N99D, F265Y counted along it

PHHY = target: T4, PHHY (Cutaneotrichosporon cutaneum, UniProt P15245); assay: enzyme assay, catechol production; assay type: cell-based; settings: E. coli-expressed enzyme; purification not told in main text
T4 construct: synthesized gene expressed in E. coli; FAD-dependent
T4 sequence (P15245 2-665): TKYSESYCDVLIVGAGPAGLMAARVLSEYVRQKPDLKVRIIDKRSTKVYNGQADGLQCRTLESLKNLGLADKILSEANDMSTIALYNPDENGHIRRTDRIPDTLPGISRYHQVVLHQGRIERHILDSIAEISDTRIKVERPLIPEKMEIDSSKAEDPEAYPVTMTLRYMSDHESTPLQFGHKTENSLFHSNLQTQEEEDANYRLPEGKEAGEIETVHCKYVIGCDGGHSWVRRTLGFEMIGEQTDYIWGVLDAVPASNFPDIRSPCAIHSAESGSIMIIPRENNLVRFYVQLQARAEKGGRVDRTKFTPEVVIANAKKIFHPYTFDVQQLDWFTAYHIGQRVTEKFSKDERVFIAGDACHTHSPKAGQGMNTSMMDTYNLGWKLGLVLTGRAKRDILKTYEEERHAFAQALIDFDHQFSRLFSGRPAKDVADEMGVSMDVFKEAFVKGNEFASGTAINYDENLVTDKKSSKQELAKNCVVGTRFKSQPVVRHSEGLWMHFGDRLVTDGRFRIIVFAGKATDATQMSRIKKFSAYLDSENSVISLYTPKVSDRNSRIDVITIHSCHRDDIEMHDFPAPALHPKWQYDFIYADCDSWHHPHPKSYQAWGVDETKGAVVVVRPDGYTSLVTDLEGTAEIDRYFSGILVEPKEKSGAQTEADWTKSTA

| Structure (SMILES) | % of wild-type activity (production of 7) (VibO [1]) [%] | % of wild-type activity (production of 7) (VibO [2]) [%] | % of wild-type activity (production of 7) (VibO [3]) [%] | enzyme assay, catechol production (PHHY) |
| --- | --- | --- | --- | --- |
| CC(C)=CCc1cc(CO)ccc1O [compound 6, 3-prenyl-4-hydroxybenzylalcohol] | 10 | 16 | 22 |  |
| Oc1ccccc1 [phenol] |  |  |  | significant production of catechol was observed for PHHY incubating with phenol |
